The text below walks through data of publication PMC4945415 (Journal of medicinal chemistry, 2016).

One data set is described as follows: Kinetic solubility. The note with it: for Kinetic solubility FaSSIF / Kinetic solubility pH 6.5: pH 6.5.
The subject of data set [1] is Chinese hamster ovarian (CHO) cell line. The note with it: read-out: CHO IC50.
Data set [2] is described as follows: In vitro metabolic stability, rat liver microsomes. Background: Microsomes from liver hold many membrane-bound enzymes, among them those of drug oxidation.
Another data set has as its system β-hematin (βH) formation. The experiment in a line: NP-40 detergent mediated β-hematin inhibition assay. The data set is classed as biochemical. The note with it: read-out: βH inhibition IC50; NP-40 assay.
The subject of another data set is K1 CQ-resistant strain. The note with it: read-out: K1 parasite IC50.
Data set [3] is described as follows: In vitro metabolic stability, human liver microsomes.
Data set [4] is described as follows: In vitro metabolic stability, mouse liver microsomes.
The test system of data set [5] is D10 strain of P. falciparum. In words: Parasite growth inhibition, CQ-sensitive D10 strain. Format: cell-based, Plasmodium falciparum.
Data set [6] has as its system NF54 strain of P. falciparum. The experiment in a line: Parasite growth inhibition, CQ-sensitive NF54 strain. The data set is classed as cell-based, Plasmodium falciparum.
A short description of data set [7]: Association constant with Fe. The note with it: for logK (association constant with Fe(III)PPIX): 1:1 complex, 7.5 μM hematin, 40% v/v DMSO, pH 7.5; for Binding constant ratio relative to 12c (K/K12c): from logK values. Format: binding.
The subject of data set [8] is D6 strain of P. falciparum. The note with it: read-out: parasite activity against the D6 strain, HTS; cited from earlier work.
Data set [9] concerns parasitized erythrocyte, CQ-sensitive D10 strain. The experiment in a line: Inoculum effect measurement of cellular accumulation. The data set is classed as cell-based, Plasmodium falciparum. As to conditions: IC50 vs initial parasitemia.
For data set [10] the following is noted: 1:1 complex, 40% DMSO; cited from earlier work.
[11] abbreviates: read-out: D10 parasite IC50, CQ-sensitive D10 strain.
The mark [12] stands for this setting: read-out: NF54 parasite IC50, CQ-sensitive NF54 strain.

Like-named read-outs stand apart in the source and are kept apart here. Marks after values point to notes of the source that are not given here. A value given as a limit tells only on which side of the number the result lay.

For “5-(tert-Butyl)-N,N-di(pyridin-3-yl)isophthalamide [Compound 15i]”, the “Kinetic solubility FaSSIF” value in the data set “Kinetic solubility” stood at 153.6 µM. Further, the “Kinetic solubility pH 2” value in the data set “Kinetic solubility” turned out to be 197.2 μM. Moreover, in “Kinetic solubility”, the “Kinetic solubility pH 6.5” value stood at 92.7 μM. In addition, the IC50 in data set [1] was found to be 185 µM; in the data set on β-hematin (βH) formation, 6.8 ± 0.1 µM; with K1 CQ-resistant strain, 1.7 ± 0.4 µM; in data set [5] (setting [11]) it was 0.7 ± 0.1 µM; in [6] (setting [12]), 0.6 ± 0.1 µM. The Degradation half-life in [2] worked out at 1.55 h; in data set [3], 2.365 h; in data set [4], 0.873 h. The “Hepatic extraction (EH)” value worked out at 0.4 in data set [2], 0.4 in data set [3] and 0.6 in data set [4]. The In vitro clearance in [2] is on record as 33.5 μL/min/mg protein; in data set [3], 14.1 μL/min/mg protein; in data set [4], 130.3 μL/min/mg protein.
For the molecule “5-(tert-Butyl)-N,N-di(pyridin-4-yl)isophthalamide [Compound 15h]”, the IC50 in the data set with β-hematin (βH) formation came to 13.3 ± 0.7 µM; in data set [6] (setting [12]), 1.6 ± 0.2 µM.
As for “5-(tert-Butyl)-N,N-diphenylisophthalamide [Compound 15j]”, the IC50 in the data set with β-hematin (βH) formation was more than 1000 µM; in [6] (setting [12]), 8.1 ± 0.5 µM.
As for “5-Cyano-N,N-di(pyridin-4-yl)isophthalamide [Compound 15d]”, the IC50 in the data set on β-hematin (βH) formation was found to be 6.34 ± 0.09 µM; in data set [5] (setting [11]), 2 ± 0.2 µM; in data set [6] (setting [12]), 1.9 ± 0.2 µM.
In the case of “5-Cyano-N,N-diphenylisophthalamide [Compound 15e]”, the values for the IC50 (in the data set on β-hematin (βH) formation; in [5] (setting [11])) were 4.4 ± 0.2 µM and 5.2 µM, respectively.
As to “5-Methoxy-N,N-di(pyridin-4-yl)isophthalamide [Compound 15m]”, the IC50 in the data set on β-hematin (βH) formation came to 22 ± 1 µM; in data set [6] (setting [12]), 3 ± 0.5 µM.
In the same order, the values of “5-Methoxy-N,N-diphenylisophthalamide [Compound 15n]” are more than 1000 µM and 37 ± 13 µM.
With “5-Methyl-N,N-di(pyridin-4-yl)isophthalamide [Compound 15f]”, the IC50 with β-hematin (βH) formation was 8 ± 1 µM. Besides, in data set [7], the “logK (association constant with Fe(III)PPIX)” value (“logK” for short) was 3.92 ± 0.21 and the “Binding constant ratio relative to 12c (K/K12c)” value is listed as 5.24. Further, the IC50 in data set [6] (setting [12]) turned out to be 2.5 ± 0.6 µM.
As to “5-Methyl-N,N-diphenylisophthalamide [Compound 15g]”, the IC50 in the data set with β-hematin (βH) formation was more than 1000 µM; in data set [6] (setting [12]), 146 ± 1 µM.
In the same order, the values of “5-Nitro-N,N-di(pyridin-3-yl)isophthalamide [Compound 15b]” are 4.7 ± 0.7 µM and 1.32 ± 0.04 µM.
Consider “5-Nitro-N,N-di(pyridin-4-yl)isophthalamide [Compound 15a]”, for which the “Kinetic solubility FaSSIF” value in the data set “Kinetic solubility” is 13 µM. For the same molecule, in “Kinetic solubility”, the “Kinetic solubility pH 2” value is given as 199.7 μM. For the same molecule, the “Kinetic solubility pH 6.5” value in “Kinetic solubility” is on record as less than 5 μM. The IC50 is more than 275 µM in data set [1]; 4.3 ± 0.1 µM in the data set with β-hematin (βH) formation; 0.19 µM in data set [8]; 0.9 ± 0.1 µM in [5] (setting [11]); 0.7 ± 0.2 µM in [6] (setting [12]). The Degradation half-life in data set [2], in [3] and in data set [4] was more than 2.5 h each time. Also, the “Hepatic extraction (EH)” value is recorded as less than 0.30 in data set [2], less than 0.42 in [3] and less than 0.33 in data set [4]. In addition, the In vitro clearance in data set [2], in data set [3] and in [4] was less than 11.6 μL/min/mg protein in each case. In addition, the “inoculum effect / cellular accumulation” value in data set [9] is listed as “larger accumulation ratios”.
Turning to “5-Nitro-N,N-diphenylisophthalamide [Compound 15c]”, the IC50 amounted to 7 ± 0.2 µM in the data set with β-hematin (βH) formation and 1.4 ± 0.2 µM in data set [6] (setting [12]).
As for `CCN(CC)CCCC(C)Nc1ccnc2cc(Cl)ccc12` (stereo not shown) [CQ, chloroquine, reference compound], the “logK” value in data set [10] is 5.52 ± 0.03 ^a. For the same molecule, the IC50 in data set [5] (Plasmodium falciparum, D10, read-out: D10 parasite IC50) worked out at 0.021 ± 0.002 µM; in data set [6] (Plasmodium falciparum, NF54, read-out: NF54 parasite IC50), 0.008 ± 0.002 µM.
Consider `O=C(Nc1ccncc1)c1cc([N+](=O)[O-])cc([N+](=O)[O-])c1` [Compound 12c, 3,5-Dinitro-N-(pyridin-4-yl)benzamide], for which, in data set [7], the “logK” value amounted to 3.20 ± 0.36 and the “Binding constant ratio relative to 12c (K/K12c)” value was found to be 1.
As for `O=C(Nc1ccccc1)c1cc(C(=O)Nc2nc3ccccc3[nH]2)cc([N+](=O)[O-])c1` [Compound 18, N^1-(1H-Benzo[d]imidazol-2-yl)-5-nitro-N^3-phenylisophthalamide], the IC50 in data set [6] (Plasmodium falciparum, NF54, read-out: parasite activity (maximum dose concentration)) was more than 249 µM.
As to “N,N-Di(pyridin-4-yl)isophthalamide [Compound 15k]”, the IC50 came out at 507 ± 33 µM in the data set with β-hematin (βH) formation and 9 ± 4 µM in data set [6] (setting [12]).
In the same order, the values of “N,N-Di(pyridin-4-yl)pyridine-2,6-dicarboxamide [Compound 15o]” are 260 ± 7 µM and more than 315 µM.
With “N,N-Diphenylpyridine-2,6-dicarboxamide [Compound 15p]”, the IC50 in the data set with β-hematin (βH) formation is more than 1000 µM; in data set [6] (setting [12]), more than 315 µM.
In the case of “N,N-bis(4-((Dimethylamino)methyl)phenyl)-5-nitroisophthalamide [Compound 17]”, the results for the IC50 (in the data set on β-hematin (βH) formation; in [6] (setting [12])) were 7.9 ± 0.2 µM and 1.5 ± 0.2 µM, respectively. Further, in [9], the “inoculum effect / cellular accumulation” value is “insignificant inoculum effect”.
